Consider 22 compounds from patent US20260250290A1 (BRISTOL-MYERS SQUIBB COMPANY, priority 2023, published 2026).

The IC50 is the concentration needed to halve the response being measured.

For the assay, the target named is T1, SGK1 (Homo sapiens, UniProt O00141).
T1 sequence (O00141 1-431): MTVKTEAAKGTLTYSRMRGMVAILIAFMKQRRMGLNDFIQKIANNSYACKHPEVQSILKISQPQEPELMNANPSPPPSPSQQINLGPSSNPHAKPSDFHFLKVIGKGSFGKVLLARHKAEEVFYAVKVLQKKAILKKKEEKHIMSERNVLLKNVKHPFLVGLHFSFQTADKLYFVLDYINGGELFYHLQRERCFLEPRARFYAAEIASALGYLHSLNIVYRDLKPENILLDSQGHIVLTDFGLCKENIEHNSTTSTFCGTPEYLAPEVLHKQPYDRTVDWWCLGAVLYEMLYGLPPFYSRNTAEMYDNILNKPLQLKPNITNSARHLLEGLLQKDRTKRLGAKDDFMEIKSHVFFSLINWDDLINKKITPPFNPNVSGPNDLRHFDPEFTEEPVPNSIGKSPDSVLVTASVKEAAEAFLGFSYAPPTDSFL
Nature of the assay: SGK1 inhibition Assay B (Echo mass spectrometry of phosphorylated peptide product). In kind it is biochemical. The following applies: 60 min at room temperature.

Method: 20 μl of 2 nM SGK1 were added in 20 mM Hepes+10 mM MgCl2+0015% Brij-35+4 mM DTT+0.05 mg/ml BSA and the reaction incubated for 60 min at room temperature. The enzymatic reaction was quenched by addition 10 μl of 1% Formic Acid+150 nM Internal Standard: FITC-(Ahx)KKRNRR(pS)VA^—OH (final concentration). The plates are spun down at 3700 RPM for 10 minutes to remove all precipitate. Samples were loaded on to the Sciex Echo Mass Spec attached to a Sciex 6500 equipped with ESI and was used to analyze the phosphorylated peptide product. MRM transition of product and internal standard were monitored at m/z 755 to 937.5 and m/z 757.7 to 941.3 respectively. Peak area of analyte was normalized with internal standard.
Dose response curves were generated to determine the concentration required for inhibiting 50% of the enzyme activity. Compounds were dissolved at 10 mM in dimethylsulfoxide (DMSO) and evaluated at eleven concentrations.

`CCN1[C@@H]2CCC[C@H]1C[C@H](Oc1nc(C)sc1C(=O)N[C@@H]1CCCN(c3cc(-c4ccc(=O)n(CC(F)F)n4)n4ncnc(N)c34)C1)C2` [Example 970, N—((R)-1-(4-amino-7-(1-(2,2-difluoroethyl)-6-oxo-1,6-dihydropyridazin-3-yl)pyrrolo[2,1-f][1,2,4]triazin-5-yl)piperidin-3-yl)-4-(((1R,3s,5S)-9-ethyl-9-azabicyclo[3.3.1]nonan-3-yl)oxy)-2-methylthiazole-5-carboxamide] gave an IC50 of 5 nM. With `COCCn1nc(-c2cc(N3CCC[C@@H](NC(=O)c4sc(Cl)cc4O[C@@H]4C[C@H]5CCC[C@@H](C4)N5C)C3)c3c(N)ncnn23)ccc1=O` [Example 971, N—((R)-1-(4-Amino-7-(1-(2-methoxyethyl)-6-oxo-1,6-dihydropyridazin-3-yl)pyrrolo[2,1-f][1,2,4]triazin-5-yl)piperidin-3-yl)-5-chloro-3-(((1R,3s,5S)-9-methyl-9-azabicyclo[3.3.1]nonan-3-yl)oxy)thiophene-2-carboxamide], the IC50 came to 1 nM. Turning to `Nc1ncnn2c(-c3ccc(=O)n(CC(F)F)n3)cc(N3CCC[C@@H](NC(=O)c4sc(Cl)cc4O[C@@H]4C[C@H]5CCC[C@@H](C4)N5CCO)C3)c12` [Example 972, N—((R)-1-(4-amino-7-(1-(2,2-difluoroethyl)-6-oxo-1,6-dihydropyridazin-3-yl)pyrrolo[2,1-f][1,2,4]triazin-5-yl)piperidin-3-yl)-5-chloro-3-(((1R,3s,5S)-9-(2-hydroxyethyl)-9-azabicyclo[3.3.1]nonan-3-yl)oxy)thiophene-2-carboxamide], the IC50 turned out to be 2 nM. Turning to `Cc1nc(O[C@H]2CC[C@@H](N(C)C)CC2)c(C(=O)N[C@@H]2CCCN(c3cc(-c4ccc(=O)n(CC(F)(F)F)n4)n4ncnc(N)c34)C2)s1` [Example 973, N—((R)-1-(4-amino-7-(6-oxo-1-(2,2,2-trifluoroethyl)-1,6-dihydropyridazin-3-yl)pyrrolo[2,1-f][1,2,4]triazin-5-yl)piperidin-3-yl)-4-(((1s,4S)-4-(dimethylamino)cyclohexyl)oxy)-2-methylthiazole-5-carboxamide], the IC50 stood at 4 nM.

Regarding `CN1[C@@H]2CC[C@H]1C[C@H](Oc1cc(Cl)sc1C(=O)N[C@@H]1CCCN(c3cc(-c4ccnn4C)n4ncnc(N)c34)C1)C2` [Example 975, N—((R)-1-(4-amino-7-(1-methyl-1H-pyrazol-5-yl)pyrrolo[2,1-f][1,2,4]triazin-5-yl)piperidin-3-yl)-5-chloro-3-(((1R,3s,5S)-8-methyl-8-azabicyclo[3.2.1]octan-3-yl)oxy)thiophene-2-carboxamide], inhibition was half-maximal at 7 nM (IC50).

The compound `CN1[C@@H]2CC[C@H]1C[C@H](Oc1cc(Cl)sc1C(=O)N[C@@H]1CCCN(c3c(F)c(C4=CCOC4)n4ncnc(N)c34)C1)C2` [Example 976, N—((R)-1-(4-amino-7-(2,5-dihydrofuran-3-yl)-6-fluoropyrrolo[2,1-f][1,2,4]triazin-5-yl)piperidin-3-yl)-5-chloro-3-(((1R,3s,5S)-8-methyl-8-azabicyclo[3.2.1]octan-3-yl)oxy)thiophene-2-carboxamide] displayed an IC50 of 1 nM. `Cc1nc(O[C@H]2CC[C@@H](NC(C)C)CC2)c(C(=O)N[C@@H]2CCCN(c3cc(C4=CC(=O)OC4)n4ncnc(N)c34)C2)s1` [Example 977, N—((R)-1-(4-amino-7-(5-oxo-2,5-dihydrofuran-3-yl)pyrrolo[2,1-f][1,2,4]triazin-5-yl)piperidin-3-yl)-4-(((1s,4S)-4-(isopropylamino)cyclohexyl)oxy)-2-methylthiazole-5-carboxamide] came in with an IC50 of 1 nM. `Cc1nc(O[C@H]2CC[C@@H](NCC(C)(C)O)CC2)c(C(=O)N[C@@H]2CCCN(c3cc(-c4ccc(C(N)=O)c(F)c4)n4ncnc(N)c34)C2)s1` [Example 978, N—((R)-1-(4-Amino-7-(4-carbamoyl-3-fluorophenyl)pyrrolo[2,1-f][1,2,4]triazin-5-yl)piperidin-3-yl)-4-(((1s,4S)-4-((2-hydroxy-2-methylpropyl)amino)cyclohexyl)oxy)-2-methylthiazole-5-carboxamide] came in with an IC50 of 3 nM. In the case of `Cc1nc(O[C@H]2CC[C@@H](NCCC#N)CC2)c(C(=O)N[C@@H]2CCCN(c3cc(-c4ccc(C(N)=O)c(F)c4)n4ncnc(N)c34)C2)s1` [Example 979, N—((R)-1-(4-Amino-7-(4-carbamoyl-3-fluorophenyl)pyrrolo[2,1-f][1,2,4]triazin-5-yl)piperidin-3-yl)-4-(((1s,4S)-4-((2-cyanoethyl)amino)cyclohexyl)oxy)-2-methylthiazole-5-carboxamide], inhibition was half-maximal at 4 nM (IC50). As for `Cc1nc(O[C@H]2CC[C@@H](NC3CCOC3)CC2)c(C(=O)N[C@@H]2CCCN(c3cc(-c4ccc(=O)n(CC(F)F)n4)n4ncnc(N)c34)C2)s1` (stereo partly drawn) [Example 980, N—((R)-1-(4-Amino-7-(1-(2,2-difluoroethyl)-6-oxo-1,6-dihydropyridazin-3-yl)pyrrolo[2,1-f][1,2,4]triazin-5-yl)piperidin-3-yl)-2-methyl-4-(((1s,4S)-4-((tetrahydrofuran-3-yl)amino)cyclohexyl)oxy)thiazole-5-carboxamide], the IC50 was 1 nM. Turning to `CCN1CCC(Oc2nc(C)sc2C(=O)N[C@@H]2CCCN(c3cc(-c4ccc(C(N)=O)c(F)c4)n4ncnc(N)c34)C2)CC12CCC2` (stereo partly shown) [Example 982], the IC50 was 6 nM. Compound `CCN1CCC(Oc2nc(C)sc2C(=O)N[C@@H]2CCCN(c3cc(C4=CCN(C(=O)C5(C#N)CC5)C4)n4ncnc(N)c34)C2)CC1(C)C` (stereo partly drawn) [Example 985, N—((R)-1-(4-Amino-7-(1-(1-cyanocyclopropane-1-carbonyl)-2,5-dihydro-1H-pyrrol-3-yl)pyrrolo[2,1-f][1,2,4]triazin-5-yl)piperidin-3-yl)-4-((1-ethyl-2,2-dimethylpiperidin-4-yl)oxy)-2-methylthiazole-5-carboxamide] gave an IC50 of 4 nM. `CC(=O)N1CC=C(c2cc(N3CCC[C@@H](NC(=O)c4sc(Cl)cc4OC4CC5COCC(C4)N5)C3)c3c(N)ncnn23)C1` (stereo partly drawn) [Example 986E, 3-((3-Oxa-9-azabicyclo[3.3.1]nonan-7-yl)oxy)-N—((R)-1-(7-(1-acetyl-2,5-dihydro-1H-pyrrol-3-yl)-4-aminopyrrolo[2,1-f][1,2,4]triazin-5-yl)piperidin-3-yl)-5-chlorothiophene-2-carboxamide]: the IC50 came to 0.9 nM. Compared with the last compound, the IC50 is about 4.4-fold lower. The compound `CC(=O)N1CC=C(c2cc(N3CCC[C@@H](NC(=O)c4sc(Cl)cc4OC4CC5COCC(C4)N5CCO)C3)c3c(N)ncnn23)C1` (stereo partly shown) [Example 986] displayed an IC50 of 37 nM.

In turn, `CC(=O)N1CC=C(c2cc(N3CCC[C@@H](NC(=O)c4sc(Cl)cc4OC4CCCN(C(C)C)CC4)C3)c3c(N)ncnn23)C1` (stereo partly shown) [Example 987] came in with an IC50 of 1 nM.

The compound `CC(=O)N1CC=C(c2cc(N3CCC[C@@H](NC(=O)c4sc(Cl)cc4O[C@@H]4C[C@H]5CC[C@@H](C4)O5)C3)c3c(N)ncnn23)C1` [Example 988, 3-(((IR,3s.5S)-8-oxabicyclo[3.2.1]octan-3-y1)oxy)-N-((R)-1-(7-(1-acetyl-2,5-dihydro-1H-pyrrol-3-y1)-4-aminopyrrolo[2,1-f][1,2,4]triazin-5-y1)piperidin-3-y1)-5-chlorothiophene-2-carboxamide] had an IC50 of 3 nM. Compound `CC(C)N1CC2CCC1CC2Oc1cc(Cl)sc1C(=O)N[C@@H]1CCCN(c2cc(-c3ccc(-n4cnnn4)nc3)n3ncnc(N)c23)C1` (stereo partly drawn) [Example 989, N—((R)-1-(7-(6-(1H-tetrazol-1-yl)pyridin-3-yl)-4-aminopyrrolo[2,1-f][1,2,4]triazin-5-yl)piperidin-3-yl)-5-chloro-3-((2-isopropyl-2-azabicyclo[2.2.2]octan-5-yl)oxy)thiophene-2-carboxamide] had an IC50 of 0.9 nM.

In the case of `CN(C)CC(=O)N1CC2CCC1CC2Oc1cc(Cl)sc1C(=O)N[C@@H]1CCCN(c2cc(-c3ccc(-n4cnnn4)nc3)n3ncnc(N)c23)C1` (stereo partly shown) [Example 990], the IC50 came to 1 nM. As to `CN1CC2CCC1CC2Oc1cc(Cl)sc1C(=O)N[C@@H]1CCCN(c2cc(-c3ccc(=O)n(CC(F)F)c3)n3ncnc(N)c23)C1` (stereo partly drawn) [Example 991, N—((R)-1-(4-amino-7-(1-(2,2-difluoroethyl)-6-oxo-1,6-dihydropyridin-3-yl)pyrrolo[2,1-f][1,2,4]triazin-5-yl)piperidin-3-yl)-5-chloro-3-((2-methyl-2-azabicyclo[2.2.2]octan-5-yl)oxy)thiophene-2-carboxamide], the IC50 is 0.8 nM. Next, `Nc1ncnn2c(-c3ccc(-n4cnnn4)c(F)c3)cc(N3CCC[C@@H](NC(=O)c4sc(Cl)cc4OC4CC5CC4CN5C4COC4)C3)c12` (stereo partly drawn) [Example 994, N—((R)-1-(4-amino-7-(3-fluoro-4-(1H-tetrazol-1-yl)phenyl)pyrrolo[2,1-f][1,2,4]triazin-5-yl)piperidin-3-yl)-5-chloro-3-((2-(oxetan-3-yl)-2-azabicyclo[2.2.1]heptan-5-yl)oxy)thiophene-2-carboxamide]: 0.6 nM.

`CC(C)N1CC2(CC(Oc3cc(Cl)sc3C(=O)N[C@@H]3CCCN(c4cc(-c5ccnc(C#N)c5)n5ncnc(N)c45)C3)C2)C1` [Example 995] had an IC50 of 1 nM. This IC50 is about 1.7-fold higher than that of the compound before. Compound `COC[C@@H](C)NC1CCC(Oc2nc(C)sc2C(=O)N[C@@H]2CCCN(c3cc(C4=CC(=O)OC4)n4ncnc(N)c34)C2)CC1` (stereo partly drawn) [Example 996, N—((R)-1-(4-amino-7-(5-oxo-2,5-dihydrofuran-3-yl)pyrrolo[2,1-f][1,2,4]triazin-5-yl)piperidin-3-yl)-4-((4-(((R)-1-methoxypropan-2-yl)amino)cyclohexyl)oxy)-2-methylthiazole-5-carboxamide] yielded an IC50 of 1.1 nM.
